Source: patent publication US20210048439A1, “CAGED AMINO ACIDS FOR CONTROLLED METABOLIC INCORPORATION AND METHODS OF USE” (University of Washington, priority 2018, published 2021)

Tests used:
HeLa cells [1] = experiment: Metabolic labeling of Met-depleted HeLa cells; Aha incorporation quantified by protein fluorescence (FAM-BCN, SDS-PAGE); assay type: cell-based
Method: Subsequent irradiation with UV light (λ=365 nm, 10 mW cm^−2, 5 min) yielded photoliberated Aha for metabolic incorporation. Two hours after light exposure, cells were lysed and their proteins were treated with a bicyclononyne-modified fluorescein (FAM-BCN, 100 nM, FIG. 2E) to introduce a fluorescent label by SPAAC. Protein fluorescence was then used to quantify the extent of Aha incorporation following protein separation by sodium dodecyl sulfate polyacrylamide gel electrophoresis (SDS-PAGE).
To control the extent of ncAA incorporation into newly synthesized proteins, NPPOC-Aha concentration was varied (0-250 μM) and the intensity of light irradiation (0-10 mW cm^−2) employed during photo-uncaging. […] To determine the potential effects of UV irradiation on metabolic incorporation, labeled protein fluorescence was compared for samples treated with Aha (50 μM)+/−light (10 mW cm^−2, 5 min) (FIG. 3D).
For in vitro work, borosilicate well plates (Mattek, P35G-1.5-14-C) were pretreated with high glucose Dulbecco's Modified Eagle Media (DMEM) supplemented with fetal bovine serum (FBS, 10%) and penicillin-streptomycin (PS, 1%). Plates were incubated at 37° C. for 10 minutes. HeLa cells were cultured on tissue culture polystyrene before seeding on borosilicate glass. After cells reached the desired confluency (50-60% for imaging; 80-90% for lysate analysis), cells were subjected to the following experiments.
Cells were rinsed with warm 1× Dulbecco's phosphate buffered saline (DPBS) and starved of methionine (Met) by the addition of Met-depleted media (1 h, 37° C.). Met-depleted media was prepared by adding L-cystine-2HCl (0.2 mM), L-glutamine (4 mM), and sodium pyruvate (1 mM) to depleted media (Fisher, 21013024). Media was removed and cells were treated with media containing NPPOC-Aha at the desired concentration (0-250 μM). Control media consisted of Aha or Met in the place of NPPOC-Aha. Cells were then irradiated with light (365 nm, 1-10 mW/cm2, 5 min). The cultures were then incubated (2 h, 37° C.) to promote Aha incorporation. The cells were then washed with 1×DPBS (37° C.).
Samples were prepared for sodium dodecyl sulfate polyacrylamide gel electrophoresis (SDS-PAGE) by lysing cells in lysis buffer (10 mM PO4, pH 7.0, 0.5% sodium dodecyl sulfate). Proteins were collected and immediately placed on ice. Free thiols were capped by the addition of iodoacetamide (10 mM, 30 min, room temperature). Azide-containing proteins were labeled by treatment with FAM-BCN (10 μM, 5 hours, room temperature). Excess FAM-BCN was removed by precipitating proteins with 4× sample volume of cold acetone (−20° C.). Lysates were incubated in acetone (1 h, −20° C.) and then subjected to centrifugation (14,000×g, 10 min). Proteins were redissolved in lysis buffer with gentle heating (40° C., 10 min), precipitated once more, and washed with 4× sample volume acetone before drying (20 min). Proteins were then dissolved in SDS-PAGE sample buffer (50 mM Tris-HC, 2% SDS, 10% glycerol, 12.5% β-mercaptoethanol, 0.025% bromophenol blue). Proteins were electrophoretically separated by a 12% polyacrylamide gel by applying a potential of 105 V. After electrophoresis, gels were scanned on a Typhoon FLA9000 fluorescent gel scanner before being stained with coomassie dye.

HeLa cells [2] = experiment: NPPOC-Aha in vitro stability in media with HeLa cells; assay type: in vitro ADME
Method: To assess its in vitro stability, NPPOC-Aha (100 μM) was incubated in media with HeLa cells for 0-4 hr prior to light exposure (10 mW cm^−2, 5 min) and subsequent metabolic labeling (2 hr). […] Such stability is useful in sampling biological systems, as it decouples media swaps from proteome labeling, allowing researchers to standardize their experimental conditions.
The stability of NPPOC-Aha was conducted using the above protocols for cell culture and SDS-PAGE with minor modifications. Instead of irradiating samples immediately following addition of NPPOC-Aha media, NPPOC-Aha was incubated in the presence of cells for the desired time (0-4 hours) prior to light exposure. Met (3.33 μM) was added to all media, yielding a 30:1 ratio of NPPOC-Aha:Met5.

HeLa cells [3] = experiment: Fluorescent labeling of phototagged fixed cells (confocal imaging); assay type: cell-based; details: NPPOC-Aha 100 μM in the absence of light
Method: Building on the capability to fluorescently tag cellular lysates as well as isolate species of interest via laBONCAT, the technique's unique ability to label newly synthesized proteins in vitro with spatial control was investigated; this method could be applied to the isolation of proteins […] at user-specified times and locations from heterogeneous features in tissue culture, especially tissue slices. HeLa cells were treated with NPPOC-Aha (100 μM) and exposed to light (λ=365 nm, 10 mW cm^−2, 5 min). Two hours after exposure, cells were fixed, permeabilized, and treated with FAM-BCN (100 nM) to introduce a fluorescent label via SPAAC.
To fluorescently label Aha-tagged proteins for visualization, cells were rinsed with warm 1×DPBS (37° C.) before fixing with formaldehyde (4%, 10 min, room temperature). Fixed cells were rinsed with 1×DPBS, and permeabilized with Triton™ X-100 (Sigma, 0.5%, 2 min, room temperature). Cells were then washed (3×, 5 min each) with 1×DPBS. Azides were labeled by strain-promoted azide-alkyne cycloaddition (SPAAC) with FAM-BCN (100 nM, 30 min, room temperature) in the dark. Next, labeled cells were washed (3×, 5 min each) with 1×DPBS prior to imaging on a Leica SP8X laser scanning confocal microscope.

HeLa cells [4] = experiment: Spatial labeling of phototagged cells in 3D tissue culture (PEG hydrogel, slitted photomask); assay type: cell-based; details: cells in oxime-based PEG hydrogels (7 wt %), irradiated through slitted photomask
From the text: Cells were encapsulated in oxime-based poly(ethylene glycol) hydrogels (7 wt %), treated with NPPOC-Aha and selectively irradiated through a slitted photomask. Cells were fixed and fluorescently labeled with FAM-BCN, phalloidin, and Hoechst. […] FAM fluorescence decreased exponentially away from exposed regions in a diffusion-predicted manner. Actin and DNA staining lack substantial patterning (FIG. 4).
HeLa cells were liberated from the tissue culture plate with trypsin, resuspended in FBS-supplemented DMEM, and pelleted by centrifugation. The cells were then gently resuspended in depleted media containing the photocaged Aha. Hydrogel precursors (10 k PEG functionalized with alkoxyamines or benzaldehyde) were combined (1:1 benzaldehyde:alkoxyamine stoichiometry) with cells prior to deposition on a glass-bottomed well plate (7 wt %, 10 mM aniline, 5 million cells/mL). After the gel had formed (30 min), it was inundated with depleted media containing […] (100 μM 30 min). Excess media was removed by aspiration and a subsection of the gel was irradiated with light (365 nm, 10 mW/cm2, 5 min) through a slitted photomask. Gels were washed with warm 1×DPBS (37° C., 15 min) before fixing with formaldehyde (4%, 1 hr, room temperature). Fixed cells were rinsed with 1×DPBS, and permeabilized with Triton™ X-100 (Sigma, 0.5%, 1 hr, room temperature). Cells were then washed (3×, 1 hr each) with 1×DPBS. […]

[5] = NPPOC-Aha photo-uncaging (photolysis) kinetics by HPLC; assay type: physicochemical
From the text: For this system to be effective, the kinetics of NPPOC uncaging should be rapid, such that the liberation of free Aha is not rate limiting compared with the biological processes under study. To determine its photolysis kinetics, NPPOC-Aha (dissolved in H2O:CH3CN, 50:50) was irradiated with collimated UV light (λ=365 nm, 10 mW cm^−2, 0-600 s exposure). Degradation products were quantitatively analyzed by HPLC, with elution fractions compositionally identified by mass spectrometry.
To determine the kinetics of NPPOC-Aha uncaging upon UV light exposure, NPPOC-Aha (3.4 mM dissolved in 50:50 dH2O:CH3CN) was placed in quartz NMR tubes and irradiated with collimated UV light (365 nm, 10 mW/cm^2) emanating from an OmniCure (series 1500; light intensity measured with Cole-Palmer series 9811 radiometer). Time points were collected every 120 s for a total of 600 s. The resulting degradation products were separated by reverse-phase HPLC, eluting with a CH3CN/dH2O gradient ramping from 5% to 100% CH3CN over 55 minutes. Remaining NPPOC-Aha was identified by HRMS (ESI+). Calculated for C14H18N5O6 [M+1H]+, 352.1257; observed 352.1259 (Δ=0.5 ppm). The HPLC peak corresponding to starting material was integrated and monitored over time.

[6] = control media with Aha or Met in place of NPPOC-Aha

Structure (SMILES)	protein fluorescence (extent of Aha incorporation) (HeLa cells [1]; [6])	effect of UV irradiation on protein labeling (HeLa cells [1]; Aha 50 μM +/− light (10 mW cm^−2, 5 min))	free Aha concentration above which normalized incorporation plateaus (HeLa cells [1]; incorporation normalized for expected liberated Aha predicted by the photokinetics)	Aha incorporation after pre-incubation, non-irradiated samples (HeLa cells [2]; 100 μM, 0-4 hr in media with HeLa cells, no light)	Aha incorporation after pre-incubation, irradiated samples (HeLa cells [2]; 100 μM, 0-4 hr in media with HeLa cells, then light)	working time (stability in media with cells) (HeLa cells [2]; NPPOC-Aha 100 μM incubated with HeLa cells 0-4 hr before light (10 mW cm^−2, 5 min), labeling 2 hr)	extent of fluorescent labeling of fixed cells (HeLa cells [3])	cellular FAM signal pattern (patterned Aha incorporation) (HeLa cells [4])	first-order decay constant for NPPOC photolysis ([5]; H2O:CH3CN 50:50, collimated UV λ=365 nm, 10 mW cm^−2, 0-600 s)	NPPOC cleaved ([5]; after 5 minutes of irradiation, 365 nm, 10 mW cm-2)	Aha incorporation as function of NPPOC-Aha concentration (HeLa cells [1]; NPPOC-Aha 0-250 μM, given exposure condition)	protein fluorescence (extent of Aha incorporation) (HeLa cells [1]; NPPOC-Aha 250 μM, UV-treated (365 nm, 10 mW cm^−2, 5 min), lysis 2 h after exposure)	protein fluorescence (extent of Aha incorporation) (HeLa cells [1]; NPPOC-Aha 250 μM, non-irradiated)	dependence of protein labeling on mode of irradiation (HeLa cells [1]; NPPOC-Aha irradiated separately or during incubation with cells)	incorporation of irradiated NPPOC-Aha compared with Aha (HeLa cells [1]; each at 100 μM, NPPOC-Aha + light)	metabolic labeling as function of light intensity (HeLa cells [1]; low NPPOC-Aha concentrations, 0-10 mW cm^−2)
CSCC[C@H](N)C(=O)O [Met, L-methionine, reference compound]	lack of fluorescence															
[N-]=[N+]=NCC[C@H](N)C(=O)O [Aha, L-Azidohomoalanine, reference compound]	significant fluorescent enhancement	no statistical difference	about 50 μM													
CC(COC(=O)N[C@@H](CCN=[N+]=[N-])C(=O)O)c1ccccc1[N+](=O)[O-] (stereo partly drawn) [NPPOC-Aha, (2S)-4-azido-2-({[2-(2-nitrophenyl)propoxy]carbonyl}amino)butanoic Acid]				did not show increased incorporation over time	extent decreased over time	> 4 h	low-level labeling similar to Met	localized near exposed regions	0.0075 ± 0.0002 s⁻¹	90%	increased with NPPOC-Aha concentration	significant fluorescent enhancement	lack of fluorescence	does not depend on whether NPPOC-Aha is irradiated separately or during incubation with cells	slightly less incorporation than Aha alone	increased with light intensity
